Experimental data: paper PMC9705834, “Mitochondrial Targeting Domain Homologs Induce Necrotic Cell Death Via Mitochondrial and Endoplasmic Reticulum Disruption” (Journal of Microbiology and Biotechnology, 2021)

Tests used:
[1] = cited from earlier work
Excerpt: Within few minutes after the treatment with the MTD peptide, intracellular calcium concentration increases, and extracellular calcium penetrates through the mitochondrial permeability transition (mPT) pore. With the formation of blebs, the calcium concentration decreases and mitochondrial reactive oxidative species (ROS) begin to increase. MTDs also induce mitochondrial swelling, fragmentation, and endopla ... || Bnip1 MTD-like motif (B1MLM), derived from another BH3-only protein, Bnip1, also induces cell death in the same manner. Bnip1 interacts with […] Bcl-2 family proteins and the adenoviral antiapoptotic protein, E1B 19 kDa. The BH3 domain of Bnip1 is closely involved in apoptosis and mitochondrial fission carried out by Drp1 [14]. B1MLM has a similar arrangement of leucine residues as that of MTD. […] Similar to MTD, B1MLM induces a sharp rise in ca ... || MTD and B1MLM peptides induce necrotic cell death when associated with R8. R8 is a well-known cell penetrating motif. […] To evaluate the cytotoxicity of MTD homologs, we synthesized these peptides and fused R8 at the N-terminus.

HeLa cells = assay: MTS assay of cell viability after peptide treatment; format: cell-based; details: HeLa cells at 90% confluency, peptide in phenol red-free DMEM for 1 h, absorbance 450 nm
Protocol: HeLa cells were purchased from the Korean Cell Line Bank (Korea) and cultured in Dulbecco’s modified Eagle’s medium (DMEM) containing 10% fetal bovine serum and 1× penicillin-streptomycin (100 IU/ml and 100 μg/ml, Gibco-Thermo Fisher, USA) at 37°C in a humidified 5% CO2 atmosphere.
HeLa cells were cultured in 96-well plates to 90% confluency and treated with peptides mixed in phenol red-free DMEM for 1 h. After incubation, MTS solution (20 μl, Promega, USA) was added and the absorbance of each well was measured at 450 nm.
Fig. 1 Mitochondrial targeting domain (MTD) homologs induce necrotic cell death as in MTD. A. (Left panel) There are several mitochondrial targeting domain (MTD) homologs in human genes. They were searched by protein basic local alignment search tool (BLAST) on National Center for Biotechnology Information (NCBI) and sorted according to percent identity with MTD. Each amino acid was colored according to the ClustalX color scheme (hydrophobic, blue; positive charge, red; negative charge, magenta; polar, green; glycine, orange; proline, yellow; aromatic, cyan; cysteine, pink). (Right panel) The cytotoxicity of mitochondrial targeting domain (MTD) homologs is determined by its amino acid sequence. MTD homologs were grouped according to their cytotoxicity, then sorted according to percent identity with MTD. Each amino acid was colored according to the ClustalX color scheme (hydrophobic, blue; positive charge, red; negative charge, magenta; polar, green; glycine, orange; proline, yellow; aromatic, cyan; cysteine, pink). B. Cell viabilities were determined by MTS assay 1 h after treating HeLa cells with MTD homologs fused with octa-arginine (R8). HeLa cells treated with R8:M-LIPRIN, R8:MST3GAL3, R8:M-TRRAD, and R8:M-SDAD1(left panel). HeLa cells treated with eM-GAL3, R8:MGAL3, and R8:M-ST13 (right panel). C, HeLa cells treated with R8:M-SDAD1 (5 μM), R8:M-TRRAD (20 μM), and R8:M-ST3GAL3 (40 μM), then observed for 10 min using differential interference contrast microscopy. D, HeLa cells were treated with R8:M-SDAD1 (10 μM), R8:M-TRRAD (20 μM), and R8:M-ST3GAL3 (40 μM), with and without DIDS (200 μM); after 1 h, cell viability was determined by MTS assay. […]

[2] = previous study; cited from earlier work

| Sequence | cytotoxicity / cell viability as the concentration increased (Fig. 1B) (HeLa cells) | other results |
| --- | --- | --- |
| KLLNLISKLF [MTD, mitochondrial targeting domain of Noxa, as a peptide without R8] | – | cell killing activity of MTD peptide without R8 ([1]; previous study): did not show any cell killing activity |
| RRRRRRRRVKKLNEISKLGISG [R8:M-GAL3, MTD homolog found in GAL3, fused with R8 at the N-terminus] | hardly altered cell viability | – |
| KLNFRQKLLNLISKLFCSGT [eMTD, extended MTD: MTD with its flanking region] | – | necrotic cell death ([1]; MTD with its flanking region): strongly induces necrotic cell death |
| RRRRRRRRKLLNLISKLF [R8:MTD] | – | disruption of ER and mitochondria [2]: induced the disruption of ER and mitochondria |
| LLQYNHRVKKLNEISKLGISGDIDLTSASYTMI [eM-GAL3, M-GAL3 with a flanking region similar to that of eMTD, without R8] | hardly altered cell viability | – |
| RRRRRRRREAKLLELTSKLRKA [R8:M-LIPRIN, MTD homolog found in LIPRIN, fused with R8 at the N-terminus] | hardly altered cell viability | – |
| RRRRRRRRNPKVMNLISKLSAK [R8:M-ST13, MTD homolog found in ST13, fused with R8 at the N-terminus] | hardly altered cell viability | – |
